Assay results as given in patent US9216977B2 (The University of North Carolina at Chapel Hill, priority 2009, dated 2015).
Where two headings read alike, the source gives them in different places.

How the values were obtained:
Type in all cases: cell-based
[1] = tested on: KBvin; experiment: in vitro screen against KBvin cell line, GI50
[2] = tested on: A549; experiment: in vitro screen against human tumor cell line A549 (lung), GI50
[3] = tested on: KB; experiment: in vitro screen against human tumor cell line KB (nasopharyngeal), GI50; conditions: for GI50: read-out: GI50 KB
[4] = tested on: DU145; experiment: in vitro screen against human tumor cell line DU-145 (prostate), GI50; conditions: read-out: GI50 DU145
[5] = tested on: HCT-8; experiment: in vitro screen against human tumor cell line HCT-8 (colon), GI50; conditions: read-out: GI50 HCT-8
[6] = Example 2, Table 2, 12-aza-antofines, read-out: GI50 A549
[7] = Example 2, Table 2, 12-aza-antofines
[8] = Homo sapiens, KBVIN, Example 3, Table 1
[9] = Homo sapiens, A549, Example 3, Table 1, read-out: GI50 A549
[10] = Homo sapiens, KB, Example 3, Table 1
[11] = Homo sapiens, DU-145, Example 3, Table 1

**Q.** What does the source list for `COc1ccc2c3c(c4cc(OC)c(OC)cc4c2c1)CC1CN(C)CN1C3` (stereo in doubt) [Compound 3k, (R)-12-aza-12N-dimethylamino-antofine]?
**A.** GI50 ([1]; Homo sapiens, Table 2, cells marked (KBvin) in the HCT-8 column): 11 µM; GI50 [2, 6]: 4.15 µM; GI50 [3, 7]: 2.38 µM; GI50 [4, 7]: 6.01 µM

**Q.** For `COc1ccc2c3c(c4cc(OC)c(OC)cc4c2c1)C[C@H]1[C@@H](O)CCN1C3` [Compound 3a], which GI50 [1, 8] is on record?
**A.** 3.42 µM

**Q.** And the GI50 [2, 9]?
**A.** 2.81 µM

**Q.** And the GI50 [3, 10]?
**A.** 1.83 µM

**Q.** And the GI50 [4, 11]?
**A.** 3.2 µM

**Q.** With `COc1ccc2c3c(c4cc(OC)c(OC)cc4c2c1)C[C@H]1[C@H](O)CCN1C3` [Compound 3b] as the compound, how does the GI50 [1, 8] read?
**A.** 0.64 µM

**Q.** What about the GI50 [2, 9] of the same compound?
**A.** 0.27 µM

**Q.** And the GI50 [3, 10]?
**A.** 0.5 µM

**Q.** And the GI50 [4, 11]?
**A.** 0.85 µM

**Q.** How did the GI50 [2, 6] turn out when `COc1ccc2c3c(c4cc(OC)c(OC)cc4c2c1)C[C@H]1CN(C)CN1C3` [Compound 3i, (S)-12-aza-12N-dimethylamino-antofine] was run?
**A.** 1.67 µM

**Q.** And the GI50 [3, 7]?
**A.** 2.31 µM

**Q.** And the GI50 [5, 7]?
**A.** 2.01 µM

**Q.** And the GI50 [4, 7]?
**A.** 2.26 µM

**Q.** What does the source list for `COc1ccc2c3c(c4cc(OC)c(OC)cc4c2c1)C[C@H]1CNCCN1C3.Cl.Cl` [Compound 8a, (S)-13-aza-cryptopleurine dihydrochloride]?
**A.** GI50 ([2]; read-out: GI50 A549): 1.73 µM; GI50 [3]: 1.79 µM; GI50 [5]: 1.62 µM; GI50 [4]: 2.08 µM

**Q.** `COc1ccc2c3c(c4cc(OC)c(OC)cc4c2c1)C[C@H]1CN(S(C)(=O)=O)CCN1C3` [Compound 8e, (S)-13-aza-13N-methylsulfonyl-cryptopleurine] was tested. Which GI50 ([2]; read-out: GI50 A549) did it give?
**A.** 14.5 µM

**Q.** And the GI50 [3]?
**A.** 17.52 µM

**Q.** What about the GI50 [5] of the same compound?
**A.** 17.8 µM

**Q.** What about the GI50 [4] of the same compound?
**A.** 17 µM

**Q.** How did the GI50 ([2]; read-out: GI50 A549) turn out when `COc1ccc2c(c1)c1c(c3cc(OC)c(OC)cc32)C[C@H]2CCN(C3CC3)CN2C1` [Compound 11e, (S)-12-aza-12N-cyclopropyl-cryptopleurine] was run?
**A.** 4.3 µM

**Q.** What about the GI50 [3] of the same compound?
**A.** 11.47 µM

**Q.** And the GI50 [5]?
**A.** 5.73 µM

**Q.** And the GI50 [4]?
**A.** 14.3 µM

**Q.** Which results are given for `COc1ccc2c3c(c4cc(OC)c(OC)cc4c2c1)C[C@H]1CCN(C)CN1C3` [Compound 11f, (S)-12-aza-12N-dimethylamino-cryptopleurine]?
**A.** GI50 ([2]; Homo sapiens, A549, Example 2, Table 4, 12-aza-cryptopleurines, read-out: GI50 A549): 1.78 µM; GI50 ([3]; Homo sapiens, KB, Example 2, Table 4, 12-aza-cryptopleurines): 3.08 µM; GI50 ([5]; Homo sapiens, HCT-8, Example 2, Table 4, 12-aza-cryptopleurines): 2.37 µM; GI50 ([4]; Homo sapiens, DU-145, Example 2, Table 4, 12-aza-cryptopleurines): 2.97 µM

**Q.** For `COc1ccc2c3c(c4cc(OC)c(OC)cc4c2c1)C[C@H]1C[C@H](O)[C@@H](O)CN1C3` [Compound 24a, (12S,13S,14aS)-12,13-dihydroxyl-cryptopleurine], which GI50 [1, 8] is on record?
**A.** 2.17 µM

**Q.** What about the GI50 [2, 9] of the same compound?
**A.** 0.55 µM

**Q.** And the GI50 [3, 10]?
**A.** 0.84 µM

**Q.** And the GI50 [4, 11]?
**A.** 0.6 µM

**Q.** With `COc1ccc2c3c(c4cc(OC)c(OC)cc4c2c1)C[C@H]1C[C@@H](O)[C@H](O)CN1C3` [Compound 24b, (12R,13R,14aS)-12,13-dihydroxyl-cryptopleurine] as the compound, how does the GI50 [1, 8] read?
**A.** 12.6 µM

**Q.** What about the GI50 [2, 9] of the same compound?
**A.** 14.5 µM

**Q.** And the GI50 [3, 10]?
**A.** 17.5 µM

**Q.** And the GI50 [4, 11]?
**A.** 17.1 µM

**Q.** What does the source list for `CC[C@@]1(O)CCN2Cc3c(c4cc(OC)c(OC)cc4c4cc(OC)ccc34)C[C@H]2C1` [Compound 25, (13R,14aS)-13-ethyl-13-hydroxyl-cryptopleurine]?
**A.** GI50 [1, 8]: 0.87 µM; GI50 [2, 9]: 0.99 µM; GI50 [3, 10]: 0.92 µM; GI50 [4, 11]: 0.77 µM

**Q.** `COc1ccc2c3c(c4cc(OC)c(OC)cc4c2c1)C[C@H]1C[C@@H](OC)CCN1C3` [Compound 26a, (13S,14aS)-13-methoxy-cryptopleurine] was tested. Which GI50 [1, 8] did it give?
**A.** 3.69 µM

**Q.** What about the GI50 [2, 9] of the same compound?
**A.** 7.11 µM

**Q.** What about the GI50 [3, 10] of the same compound?
**A.** 5.24 µM

**Q.** What about the GI50 [4, 11] of the same compound?
**A.** 3.57 µM

**Q.** For `COc1ccc2c3c(c4cc(OC)c(OC)cc4c2c1)C[C@H]1C[C@H](OC)CCN1C3` [Compound 26b, (13R,14aS)-13-methoxy-cryptopleurine], which GI50 [1, 8] is on record?
**A.** 0.066 µM

**Q.** What about the GI50 [2, 9] of the same compound?
**A.** 0.025 µM

**Q.** And the GI50 [3, 10]?
**A.** 0.1 µM

**Q.** And the GI50 [4, 11]?
**A.** 0.056 µM

**Q.** Which GI50 [1, 8] does the source give for `COc1ccc2c3c(c4cc(OC)c(OC)cc4c2c1)C[C@H]1CCCN1C3` [R-antofine, reference compound] here?
**A.** 0.025 µM

**Q.** And the GI50 ([2]; Homo sapiens, A549, Example 1, Table 1, read-out: A549 GI50)?
**A.** 0.022 µM

**Q.** And the “KB GI50” value ([3]; Example 1, Table 1)?
**A.** 0.036 µM

**Q.** And the GI50 [3, 10]?
**A.** 0.036 µM

**Q.** Which GI50 [1] does the source give for “(14R,14aS)-11-oxo-14-hydroxyl-cryptopleurine [Compound 21b]” here?
**A.** 0.12 µM

**Q.** And the GI50 ([2]; read-out: GI50 A549)?
**A.** 0.069 µM

**Q.** What about the GI50 [3] of the same compound?
**A.** 0.30 µM

**Q.** What about the GI50 [4] of the same compound?
**A.** 0.2 µM

**Q.** Which GI50 ([2]; read-out: GI50 A549) does the source give for “(S)-12-aza-12N-phenyl-cryptopleurine [Compound 11b]” here?
**A.** > 40 µM

**Q.** What about the GI50 [3] of the same compound?
**A.** >40 µM

**Q.** What about the GI50 [5] of the same compound?
**A.** 28.4 µM

**Q.** What about the GI50 [4] of the same compound?
**A.** > 40 µM
